Assay results from ChEMBL document CHEMBL1201862, “PubChem BioAssay data set” (2004).
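Following 48 hours of exposure in 96-well plates, responses at five concentrations were used to interpolate endpoints linearly. GI50 = concentration required for 50% inhibition of growth.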 The source made the active and inactive calls. Rule as the data show it: active = GI50 up to about 1.1 µM and inactive = higher.

Key:
Experiment in all cases: DTP human tumour cell line panel, 48 h
OVCAR-5 = system: OVCAR-5
DLD-1 = system: DLD-1
LXFL 529 = system: LXFL 529
OVCAR-4 = system: OVCAR-4
HCT-15 = system: HCT-15
KM-20L2 = system: KM-20L2
UACC-257 = system: UACC-257
NCI-H226 = system: NCI-H226
UO-31 = system: UO-31
SR = system: SR
HOP-18 = system: HOP-18
HOP-62 = system: HOP-62
NCI-H460 = system: NCI-H460
DMS-114 = system: DMS-114
IGROV-1 = system: IGROV-1
M14 = system: M14
K562 = system: K562
NCI-H522 = system: NCI-H522
OVCAR-3 = system: OVCAR-3
MOLT-4 = system: MOLT-4
SK-MEL-5 = system: SK-MEL-5
HCT-116 = system: HCT-116
NCI-H23 = system: NCI-H23
SW-620 = system: SW-620
TK-10 = system: TK-10
EKVX = system: EKVX
HT-29 = system: HT-29
HOP-92 = system: HOP-92
DMS-273 = system: DMS-273
786-0 = system: 786-0
HL-60 = system: HL-60
SNB-19 = system: SNB-19
OVCAR-8 = system: OVCAR-8
SNB-78 = system: SNB-78
UACC-62 = system: UACC-62
COLO 205 = system: COLO 205
SK-MEL-28 = system: SK-MEL-28
SK-OV-3 = system: SK-OV-3
SK-MEL-2 = system: SK-MEL-2
Malme-3M = system: Malme-3M
SNB-75 = system: SNB-75
LOX IMVI = system: LOX IMVI
HCC 2998 = system: HCC 2998
CAKI-1 = system: CAKI-1
XF498 = system: XF498
SF-268 = system: SF-268
M19-MEL = system: M19-MEL
A498 = system: A498
SF-295 = system: SF-295
RXF 393 = system: RXF 393
U-251 = system: U-251
ACHN = system: ACHN
SF-539 = system: SF-539
SN12C = system: SN12C
RPMI-8226 = system: RPMI-8226
CCRF-CEM = system: CCRF-CEM
A549 = system: A549
KM12 = system: KM12
RXF 631 = system: RXF 631

Measured: GI50

N#CC1CC(c2ccccc2)Nc2cc(Cl)ccc2N1 (stereo not drawn)
inactive: OVCAR-5 > 100 µM | DLD-1 28.9 µM | LXFL 529 21 µM | OVCAR-4 40.5 µM | KM-20L2 43.7 µM | UACC-257 > 81.7 µM | NCI-H226 > 100 µM | UO-31 > 100 µM | SR 14.3 µM | HOP-18 > 87.1 µM | HOP-62 55.7 µM | NCI-H460 35.4 µM | DMS-114 5.78 µM | IGROV-1 69.7 µM | M14 24.3 µM | K562 9.14 µM | NCI-H522 3.68 µM | OVCAR-3 19.3 µM | MOLT-4 10.9 µM | SK-MEL-5 41.2 µM | HCT-116 19.3 µM | NCI-H23 31.6 µM | SW-620 4.5 µM | TK-10 > 100 µM | EKVX > 79.6 µM | HT-29 24.4 µM | HOP-92 26.7 µM | DMS-273 31.2 µM | 786-0 24.1 µM | HL-60 4.1 µM | SNB-19 > 50.5 µM | OVCAR-8 33 µM | SNB-78 50.7 µM | UACC-62 31.6 µM | COLO 205 7.11 µM | SK-MEL-28 > 93.8 µM | SK-OV-3 > 100 µM | SK-MEL-2 29.1 µM | Malme-3M 24 µM | SNB-75 36.5 µM | LOX IMVI 33.1 µM | HCC 2998 > 100 µM | CAKI-1 34.8 µM | XF498 29.7 µM | SF-268 45.2 µM | M19-MEL 44.8 µM | A498 > 100 µM | SF-295 40.9 µM | RXF 393 38.8 µM | U-251 30.7 µM | ACHN 61.5 µM | SF-539 38.3 µM | SN12C 63.1 µM | RPMI-8226 6.31 µM | CCRF-CEM 3.18 µM | A549 37.6 µM | KM12 34.8 µM
13.8 µM: HCT-15

C/C=C/C=C/c1cc2cc3c(c(O)c2c(=O)[nH]1)C1(CC3)C(=O)c2c(O)c3c(c(O)c2C1=O)C(=O)C(OC)=CC3=O (stereo not drawn)
inactive: RXF 631 13.2 µM | SNB-78 4.11 µM
active: DLD-1 0.552 µM | LXFL 529 0.44 µM | KM-20L2 1.08 µM | HOP-18 0.615 µM | DMS-114 0.337 µM | DMS-273 0.414 µM | M19-MEL 0.953 µM

COc1ccc(C(C#N)Cc2cc(OC)c(OC)c(OC)c2)cc1 (stereo not drawn)
inactive: OVCAR-5 64.7 µM | DLD-1 45.7 µM | LXFL 529 41.8 µM | OVCAR-4 39.3 µM | UACC-257 50.5 µM | NCI-H226 94.2 µM | UO-31 30.8 µM | HOP-18 > 100 µM | HOP-62 22.3 µM | NCI-H460 12.1 µM | DMS-114 17.4 µM | RXF 631 35.6 µM | IGROV-1 31.9 µM | M14 33.4 µM | K562 4.99 µM | NCI-H522 22.4 µM | OVCAR-3 31.4 µM | MOLT-4 28.2 µM | SK-MEL-5 17.6 µM | HCT-116 39.9 µM | SW-620 15.7 µM | TK-10 37.6 µM | EKVX 40.7 µM | HT-29 33 µM | HOP-92 21.7 µM | DMS-273 7.16 µM | 786-0 44.1 µM | HL-60 15 µM | SNB-19 54.2 µM | OVCAR-8 37 µM | SNB-78 39.8 µM | UACC-62 27.8 µM | COLO 205 19.2 µM | SK-MEL-28 54.8 µM | Malme-3M 43.1 µM | LOX IMVI 28.6 µM | CAKI-1 29.3 µM | SF-268 49.2 µM | M19-MEL 29.9 µM | A498 17.4 µM | SF-295 10.3 µM | RXF 393 16.4 µM | U-251 29.6 µM | ACHN 45.8 µM | SF-539 23.4 µM | SN12C 41.3 µM | RPMI-8226 23.4 µM | CCRF-CEM 28.8 µM | A549 30.6 µM | KM12 24 µM
17.8 µM: HCT-15
